Measurements: patent publication US7928140B2, “Benzothiazole PI3 kinase modulators for cancer treatment” (Amgen Inc., priority 2007, dated 2011)

Key:
PI3K α = target: T1, PI3K α (Homo sapiens, UniProt P42336); experiment: In vitro PI3 kinase enzyme assay (alpha), ATP loss, bioluminescence; type: biochemical; settings: read-out: PI3Kα ATP loss IC50;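 note: purified p110α/p85 heterodimer acting on PtdIns(4,5)P2 at room temperature, remaining ATP read by luminescence, inhibition scaled between compound-free wells with and without enzyme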
T1 construct: Full length p110 subunits of PI3K α, β and δ, N-terminally labeled with polyHis tag; polyHis (N); made in house; host or cells: Sf9 insect cells (baculovirus)
T1 sequence (P42336 whole entry, species assumed): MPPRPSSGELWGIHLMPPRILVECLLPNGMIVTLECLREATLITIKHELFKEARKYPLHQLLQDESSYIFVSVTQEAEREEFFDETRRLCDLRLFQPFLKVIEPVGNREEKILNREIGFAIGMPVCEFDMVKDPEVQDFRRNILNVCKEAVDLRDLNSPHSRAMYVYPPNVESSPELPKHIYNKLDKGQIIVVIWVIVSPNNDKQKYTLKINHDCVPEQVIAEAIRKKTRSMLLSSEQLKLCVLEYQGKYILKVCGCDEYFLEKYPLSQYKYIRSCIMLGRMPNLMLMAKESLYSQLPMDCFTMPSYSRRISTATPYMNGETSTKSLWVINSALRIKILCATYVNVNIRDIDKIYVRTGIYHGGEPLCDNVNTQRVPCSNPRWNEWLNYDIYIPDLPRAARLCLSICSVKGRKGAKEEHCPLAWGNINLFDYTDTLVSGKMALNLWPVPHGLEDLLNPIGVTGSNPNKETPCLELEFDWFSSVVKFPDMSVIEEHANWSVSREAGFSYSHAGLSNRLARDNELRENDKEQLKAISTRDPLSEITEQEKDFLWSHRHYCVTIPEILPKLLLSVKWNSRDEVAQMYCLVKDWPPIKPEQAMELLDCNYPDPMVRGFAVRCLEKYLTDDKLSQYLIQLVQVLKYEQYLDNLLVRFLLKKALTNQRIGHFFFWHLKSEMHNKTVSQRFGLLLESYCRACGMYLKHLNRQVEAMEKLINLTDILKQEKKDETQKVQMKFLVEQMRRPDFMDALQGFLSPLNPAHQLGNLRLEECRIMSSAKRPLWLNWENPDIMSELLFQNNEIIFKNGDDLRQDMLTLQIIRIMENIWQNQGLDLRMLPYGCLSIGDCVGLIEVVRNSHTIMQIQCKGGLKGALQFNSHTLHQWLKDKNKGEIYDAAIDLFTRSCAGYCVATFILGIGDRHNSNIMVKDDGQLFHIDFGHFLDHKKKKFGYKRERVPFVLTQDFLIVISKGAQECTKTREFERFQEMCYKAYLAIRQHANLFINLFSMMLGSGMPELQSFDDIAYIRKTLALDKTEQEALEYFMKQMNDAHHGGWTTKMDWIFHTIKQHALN
T1 sequence (P27986 whole entry partner, species assumed): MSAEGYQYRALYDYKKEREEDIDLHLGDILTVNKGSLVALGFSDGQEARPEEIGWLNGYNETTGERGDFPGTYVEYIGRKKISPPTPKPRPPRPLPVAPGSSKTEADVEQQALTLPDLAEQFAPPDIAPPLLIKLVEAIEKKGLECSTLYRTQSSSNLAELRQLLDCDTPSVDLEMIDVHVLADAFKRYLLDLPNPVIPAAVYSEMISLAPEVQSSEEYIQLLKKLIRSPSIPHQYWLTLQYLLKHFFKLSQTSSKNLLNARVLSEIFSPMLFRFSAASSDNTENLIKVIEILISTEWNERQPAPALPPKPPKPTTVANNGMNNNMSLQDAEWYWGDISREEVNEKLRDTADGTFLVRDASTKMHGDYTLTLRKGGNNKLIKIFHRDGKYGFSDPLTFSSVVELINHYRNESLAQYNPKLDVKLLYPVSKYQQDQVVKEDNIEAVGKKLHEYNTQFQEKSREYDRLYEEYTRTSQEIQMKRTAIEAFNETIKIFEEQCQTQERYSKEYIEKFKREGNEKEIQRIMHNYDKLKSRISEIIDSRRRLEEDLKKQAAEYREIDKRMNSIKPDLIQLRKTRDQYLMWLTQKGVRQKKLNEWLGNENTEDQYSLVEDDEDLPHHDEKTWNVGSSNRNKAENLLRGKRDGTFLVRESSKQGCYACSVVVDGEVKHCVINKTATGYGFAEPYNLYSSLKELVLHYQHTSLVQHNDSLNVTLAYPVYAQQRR
Procedure: Full length p110 subunits of PI3K α, β and δ, N-terminally labeled with polyHis tag, were co-expressed with p85 in baculovirus expression vectors in sf9 insect cells. P110/p85 heterodimers were purified by sequential Ni-NTA, Q-HP, and Superdex-100 chromatography. Purified α, β and δ isozymes were stored at −20° C. in 20 mM Tris, pH 8, 0.2M NaCl, 50% glycerol, 5 mM DTT, 2 mM Na cholate.
PI3K enzyme assays (alpha, beta, delta and gamma) were performed in 25 mL with the above final concentrations of components in white polypropylene plates (Costar catalogue #3355). Phosphatidyl inositol phosphoacceptor, PtdIns(4,5)P2 (eg. P4508) was obtained from Echelon Biosciences. The ATPase activity of the alpha and gamma isozymes was not greatly stimulated by PtdIns(4,5)P2 under these conditions and was therefore omitted from the assay of these isozymes. Test compounds were dissolved in DMSO and diluted with three-fold serial dilutions. The compound in DMSO (1 μL) was added per test well, and the inhibition relative to reactions containing no compound, with and without enzyme was determined. After assay incubation at RT, the reaction was stopped and residual ATP determined by addition of an equal volume of a commercial ATP bioluminescence kit (Perkin Elmer EasyLite) according to the manufacturer's instructions, and detected using an Analyst GT luminometer.

PI3K β = target: T2, PI3K β (Homo sapiens, UniProt P42338); experiment: In vitro PI3 kinase enzyme assay (beta), ATP loss, bioluminescence; type: biochemical; settings: read-out: PI3Kβ ATP loss IC50;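 note: purified p110β/p85 heterodimer with PtdIns(4,5)P2 as acceptor, incubated at room temperature, leftover ATP read by luminescence, inhibition scaled to compound-free wells with and without enzyme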
T2 construct: Full length p110 subunits of PI3K α, β and δ, N-terminally labeled with polyHis tag; polyHis (N); made in house; host or cells: Sf9 insect cells (baculovirus)
T2 sequence (P42338 whole entry): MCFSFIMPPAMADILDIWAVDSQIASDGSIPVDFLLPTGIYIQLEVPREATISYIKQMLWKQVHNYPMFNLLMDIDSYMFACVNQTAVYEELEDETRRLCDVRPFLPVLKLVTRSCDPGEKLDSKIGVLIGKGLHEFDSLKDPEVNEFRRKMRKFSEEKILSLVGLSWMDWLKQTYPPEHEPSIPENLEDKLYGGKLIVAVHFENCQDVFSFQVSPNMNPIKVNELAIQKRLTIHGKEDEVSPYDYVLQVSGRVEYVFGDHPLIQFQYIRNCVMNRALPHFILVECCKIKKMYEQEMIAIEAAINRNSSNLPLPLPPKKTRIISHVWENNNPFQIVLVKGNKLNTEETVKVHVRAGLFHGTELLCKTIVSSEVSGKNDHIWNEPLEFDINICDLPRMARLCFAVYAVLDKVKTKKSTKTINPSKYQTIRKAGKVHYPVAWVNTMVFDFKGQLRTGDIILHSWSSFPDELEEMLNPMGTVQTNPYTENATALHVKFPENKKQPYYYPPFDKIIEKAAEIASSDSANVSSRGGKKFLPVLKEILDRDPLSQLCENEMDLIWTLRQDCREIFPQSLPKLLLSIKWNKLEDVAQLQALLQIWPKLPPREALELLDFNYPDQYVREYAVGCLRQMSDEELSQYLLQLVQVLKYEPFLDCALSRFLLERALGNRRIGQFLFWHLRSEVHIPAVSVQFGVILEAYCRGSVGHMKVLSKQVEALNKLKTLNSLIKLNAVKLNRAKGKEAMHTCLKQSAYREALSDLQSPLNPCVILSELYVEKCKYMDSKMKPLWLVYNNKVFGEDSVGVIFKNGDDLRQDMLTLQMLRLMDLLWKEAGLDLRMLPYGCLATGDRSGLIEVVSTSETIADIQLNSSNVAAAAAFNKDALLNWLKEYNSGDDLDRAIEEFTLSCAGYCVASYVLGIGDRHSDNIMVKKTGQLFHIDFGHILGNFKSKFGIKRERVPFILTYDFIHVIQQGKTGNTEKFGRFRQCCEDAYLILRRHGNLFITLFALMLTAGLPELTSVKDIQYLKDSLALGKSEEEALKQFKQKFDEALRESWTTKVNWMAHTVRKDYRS
T2 sequence (P27986 whole entry partner): as the sequence (P27986 whole entry partner, species assumed) above

Row | Structure (SMILES) | IC50 (PI3K α) | IC50 (PI3K β)
1 | CC(=O)Nc1nc2ccc(-c3ccnc(N4CCCC4c4ccccc4C)n3)cc2s1 (racemic) [Example 262, N-(6-(2-(2-o-tolylpyrrolidin-1-yl)pyrimidin-4-yl)benzo[d]thiazol-2-yl)acetamide] | 1.56 µM | 0.777 µM
2 | CC(=O)Nc1nc2ccc(-c3ccnc(OCCCN(C)C)n3)cc2s1 [Example 8] | 11.1 µM | > 40 µM
3 | CC(=O)Nc1nc2ccc(-c3ccnc(OCCN(C)C)n3)cc2s1 [Example 9] | 6.07 µM | > 40 µM
4 | CC(=O)Nc1nc2ccc(-c3ccnc(OCCN4CCOCC4)n3)cc2s1 [Example 11] |  | > 40 µM
5 | CC(=O)Nc1nc2ccc(-c3ccnc(Cc4ccccc4)n3)cc2s1 [Example 13, N-(6-(2-Benzylpyrimidin-4-yl)benzo[d]thiazol-2-yl)acetamide] | 4.48 µM | > 40 µM
6 | CC(=O)Nc1nc2ccc(-c3ccnc(OCc4ccc5[nH]ccc5c4)n3)cc2s1 [Example 24, N-(6-(2-(1H-indol-5-ylmethoxy)-4-pyrimidinyl)-1,3-benzothiazol-2-yl)acetamide] | 8.03 µM | 8.86 µM
7 | CC(=O)Nc1nc2ccc(-c3ccnc(OCC4CCN(C)CC4)n3)cc2s1 [Example 25, N-(6-(2-((1-methyl-4-piperidinyl)methoxy)-4-pyrimidinyl)-1,3-benzothiazol-2-yl)acetamide] | 10.7 µM | 26.7 µM
8 | CC(=O)Nc1ccc(Sc2nccc(-c3ccc4nc(NC(C)=O)sc4c3)n2)cc1 [Example 29, N-(4-((4-(2-(acetylamino)-1,3-benzothiazol-6-yl)-2-pyrimidinyl)sulfanyl)phenyl)acetamide] | 0.333 µM | 2.4 µM
9 | CC(=O)Nc1nc2ccc(-c3ccnc(OC4CCN(C)CC4)n3)cc2s1 [Example 31, N-(6-(2-((1-methyl-4-piperidinyl)oxy)-4-pyrimidinyl)-1,3-benzothiazol-2-yl)acetamide] | 2.38 µM | > 40 µM
10 | CC(=O)Nc1nc2ccc(-c3ccnc(OCCCN4CCOC4=O)n3)cc2s1 [Example 32, N-(6-(2-(3-(2-oxo-1,3-oxazolidin-3-yl)propoxy)-4-pyrimidinyl)-1,3-benzothiazol-2-yl)acetamide] | 0.601 µM | > 40 µM
11 | COc1cccc(Sc2nccc(-c3ccc4nc(NC(C)=O)sc4c3)n2)c1 [Example 41, N-(6-(2-((3-methoxyphenyl)sulfanyl)-4-pyrimidinyl)-1,3-benzothiazol-2-yl)acetamide] | 0.192 µM | 0.126 µM
12 | Nc1nc2ccc(-c3ccnc(NCCCc4ccccc4)n3)cc2s1 [Example 45, 6-(2-(3-Phenylpropylamino)pyrimidin-4-yl)benzo[d]thiazol-2-amine] | 1.97 µM | 0.455 µM
13 | COCCCNc1nccc(-c2ccc3nc(NC(C)=O)sc3c2)n1 [Example 46, N-(6-(2-((3-methoxypropyl)amino)-4-pyrimidinyl)-1,3-benzothiazol-2-yl)acetamide] | 1.21 µM | 20.4 µM
14 | COCCNc1nccc(-c2ccc3nc(N)sc3c2)n1 [Example 48, 6-(2-((2-methoxyethyl)amino)-4-pyrimidinyl)-1,3-benzothiazol-2-amine] | 18.1 µM | > 40 µM
15 | CC(=O)Nc1nc2ccc(-c3ccnc(N(C)C)n3)cc2s1 [Example 52, N-(6-(2-(dimethylamino)-4-pyrimidinyl)-1,3-benzothiazol-2-yl)acetamide] | 2.58 µM | > 40 µM
16 | O=C(CN1CCOCC1)Nc1nc2ccc(-c3ccnc(OCc4ccccc4)n3)cc2s1 [Example 54, N-(6-(2-(benzyloxy)-4-pyrimidinyl)-1,3-benzothiazol-2-yl)-2-(4-morpholinyl)acetamide] | 7.33 µM | > 40 µM
17 | COc1ccc(S(=O)(=O)c2ncc(-c3ccc4nc(NC(C)=O)sc4c3)s2)cc1 [Example 61, N-(6-(2-(4-methoxyphenylsulfonyl)thiazol-5-yl)benzo[d]thiazol-2-yl)acetamide] | 38.8 µM | 31 µM
18 | CC(=O)Nc1nc2ccc(-c3csc(S(=O)(=O)c4ccccc4F)n3)cc2s1 [Example 63, N-(6-(2-(2-fluorophenylsulfonyl)thiazol-4-yl)benzo[d]thiazol-2-yl)acetamide] | 0.556 µM | 4.69 µM
19 | CC(=O)Nc1nc2ccc(-c3csc(S(=O)(=O)c4ccccc4)n3)cc2s1 [Example 64, N-(6-(2-(phenylsulfonyl)thiazol-4-yl)benzo[d]thiazol-2-yl)acetamide] | 0.846 µM | > 40 µM
20 | CC(=O)Nc1nc2ccc(-c3cccc(S(=O)(=O)c4cccc(F)c4)n3)cc2s1 [Example 67, N-(6-(6-((3-fluorophenyl)sulfonyl)-2-pyridinyl)-1,3-benzothiazol-2-yl)acetamide] | 0.3 µM | 3.35 µM
21 | COc1ccccc1S(=O)(=O)c1cccc(-c2ccc3nc(NC(C)=O)sc3c2)n1 [Example 70, N-(6-(6-((2-methoxyphenyl)sulfonyl)-2-pyridinyl)-1,3-benzothiazol-2-yl)acetamide] | 0.285 µM | 1.54 µM
22 | Nc1nc2ccc(-c3cccc(NS(=O)(=O)c4ccccc4)n3)cc2s1 [Example 71, N-(6-(2-Aminobenzo[d]thiazol-6-yl)pyridin-2-yl)benzenesulfonamide] | 3.83 µM | 1.44 µM
23 | CC(=O)Nc1nc2ccc(-c3cccc(N)c3)nc2s1 [Example 156, N-(5-(3-aminophenyl)thiazolo[5,4-b]pyridin-2-yl)acetamide] | 0.641 µM | 
24 | COc1ccc(S(=O)(=O)Nc2cccc(-c3ccc4nc(NC(C)=O)sc4c3)c2)cc1 [Example 260, N-(6-(3-(4-methoxyphenylsulfonamido)phenyl)benzo[d]thiazol-2-yl)acetamide] |  | 0.413 µM

Other lines, results leading:

Row | IC50 (PI3K α) | IC50 (PI3K β) | Structure (SMILES)
25 | 2.62 µM | 1.61 µM | CC(=O)Nc1nc2ccc(-c3ccnc(N4CCCC4c4ccccc4)n3)cc2s1 (racemic) [Example 266, N-(6-(2-(2-phenylpyrrolidin-1-yl)pyrimidin-4-yl)benzo[d]thiazol-2-yl)acetamide]
26 |  | > 40 µM | COCCCOc1nccc(-c2ccc3nc(NC(C)=O)sc3c2)n1 [Example 5, N-(6-(2-(3-methoxypropoxy)-4-pyrimidinyl)-1,3-benzothiazol-2-yl)acetamide]
27 | 2.75 µM | 10.7 µM | CC(=O)Nc1nc2ccc(-c3ccnc(CCCc4ccccc4)n3)cc2s1 [Example 14, N-(6-(2-(3-phenylpropyl)-4-pyrimidinyl)-1,3-benzothiazol-2-yl)acetamide]
28 |  | 6.47 µM | CC(=O)Nc1nc2ccc(-c3ccnc(CCc4ccccc4)n3)cc2s1 [Example 15, N-(6-(2-(2-phenylethyl)-4-pyrimidinyl)-1,3-benzothiazol-2-yl)acetamide]
29 | 1.1 µM | 32.2 µM | CC(=O)Nc1nc2ccc(-c3ccnc(OCCc4cccnc4)n3)cc2s1 [Example 18, N-(6-(2-(2-(3-pyridinyl)ethoxy)-4-pyrimidinyl)-1,3-benzothiazol-2-yl)acetamide]
30 |  | 0.309 µM | CC(=O)Nc1nc2ccc(-c3ccnc(Sc4ccccc4)n3)cc2s1 [Example 21, N-(6-(2-(phenylsulfanyl)-4-pyrimidinyl)-1,3-benzothiazol-2-yl)acetamide]
31 |  | 0.491 µM | COc1ccccc1Sc1nccc(-c2ccc3nc(NC(C)=O)sc3c2)n1 [Example 28, N-(6-(2-((2-methoxyphenyl)sulfanyl)-4-pyrimidinyl)-1,3-benzothiazol-2-yl)acetamide]
32 | 0.908 µM | 1.42 µM | CC(=O)Nc1nc2ccc(-c3ccnc(Sc4ccccc4C(C)(C)C)n3)cc2s1 [Example 30, N-(6-(2-((2-tert-butylphenyl)sulfanyl)-4-pyrimidinyl)-1,3-benzothiazol-2-yl)acetamide]
33 |  | 5.97 µM | CC(=O)Nc1nc2ccc(-c3ccnc(Oc4ccccc4)n3)cc2s1 [Example 33, N-(6-(2-phenoxy-4-pyrimidinyl)-1,3-benzothiazol-2-yl)acetamide]
34 | 0.119 µM | 4.12 µM | CC(=O)Nc1nc2ccc(-c3ccnc(SCc4ccccc4C)n3)cc2s1 [Example 37, N-(6-(2-((2-methylbenzyl)sulfanyl)-4-pyrimidinyl)-1,3-benzothiazol-2-yl)acetamide]
35 | 0.126 µM |  | COc1ccc(COc2nccc(-c3ccc4nc(NC(C)=O)sc4c3)n2)cc1 [Example 38, N-(6-(2-((4-methoxybenzyl)oxy)-4-pyrimidinyl)-1,3-benzothiazol-2-yl)acetamide]
36 | 7.98 µM | > 40 µM | CC(=O)Nc1nc2ccc(-c3ccnc(O)n3)cc2s1 [Example 53, N-(6-(2-hydroxy-4-pyrimidinyl)-1,3-benzothiazol-2-yl)acetamide]
37 | 26.7 µM | 7.75 µM | CC(C)(O)C(=O)Nc1nc2ccc(-c3ccnc(OCc4ccccc4)n3)cc2s1 [Example 55, N-(6-(2-(benzyloxy)-4-pyrimidinyl)-1,3-benzothiazol-2-yl)-2-hydroxy-2-methylpropanamide]
38 | 0.277 µM | 8.83 µM | CCC(=O)Nc1nc2ccc(-c3ccnc(OCc4ccccc4)n3)cc2s1 [Example 57, N-(6-(2-(benzyloxy)-4-pyrimidinyl)-1,3-benzothiazol-2-yl)propanamide]
39 | > 40 µM | 3.93 µM | O=C(Nc1nc2ccc(-c3ccnc(OCc4ccccc4)n3)cc2s1)c1ccccc1 [Example 58, N-(6-(2-(benzyloxy)-4-pyrimidinyl)-1,3-benzothiazol-2-yl)benzamide]
40 | 11.3 µM | 9.8 µM | CN(C)CC(=O)Nc1nc2ccc(-c3ccnc(OCc4ccccc4)n3)cc2s1 [Example 59, N-(6-(2-(benzyloxy)-4-pyrimidinyl)-1,3-benzothiazol-2-yl)-N~2~,N~2~-dimethylglycinamide]
41 | 0.221 µM | > 40 µM | CC(=O)Nc1nc2ccc(-c3cccc(S(=O)(=O)c4ccccc4)n3)cc2s1 [Example 65, N-(6-(6-(phenylsulfonyl)pyridin-2-yl)benzo[d]thiazol-2-yl)acetamide]
42 |  | 8.27 µM | CC(=O)Nc1nc2ccc(-c3ccnc(Cl)n3)cc2s1 [Example 105, N-(6-(2-chloro-4-pyrimidinyl)-1,3-benzothiazol-2-yl)acetamide]
